From patent US10987327B2, “Method for preventing or treating autism spectrum disorders by benzoic acid salt” (EXCELSIOR PHARMATECH LABS, priority 2017, dated 2021)
Several values for one entry are separate records, joined by “and”; a condition that tells them apart may be missing. Equal entries are not always repeated. Entries after “also recorded” stand apart in the source; their conditions may differ.

Assays:
children with ASD [1] = assay: Adaptive Behavior Assessment System-II (ABAS-II), 12-week open label trial; type: in vivo, human; conditions: sodium benzoate 250 to 500 mg/day, 12 weeks, c2-c7 = child A-F
Procedure: (§1) Six children with ASD were treated with 250 to 500 mg/day of sodium benzoate for 12 weeks. At the baseline and the final (12 weeks) visit, the assessments of receptive and expressive vocabulary test (REVT), core vocabularies gained in the core vocabulary communication system, Chinese child developmental inventory, adaptive behavior assessment system-II (ABAS-II), parenting stress index (PSI), clinical global impression-improvement scale (CGI-I) were arranged.
(§2) This study was a twelve-week open label trial with the aim of gaining experience with sodium benzoate for the treatment of non-communicative children with ASDs. The participants were a convenient sample of outpatients children recruited from the Department of Pediatrics, Kaohsiung Medical University Hospital, Taiwan.
(§3) Six children, including five boys and 1 child with ages between 3-year-7-month to 9-year-10-month old, were assigned to receive a 12-week treatment of sodium benzoate. For children with a body weight equal or more than 15 kg, benzoate was given with 500 mg/day. […]
The ABAS-II is an individually administered, norm-referenced measure of adaptive behaviors (Harrison and Oakland, 2003). […] A Global Adaptive Composite (GAC) score is calculated from all nine skill area scores and presented as a norm-referenced standard score. Results were recorded by the pre- and post-GAC score and Social score.

children with ASD [2] = assay: Parenting Stress Index-Chinese version (PSI), 12-week open label trial; type: in vivo, human; conditions: sodium benzoate 250 to 500 mg/day, 12 weeks; * = above 85 percentile; c2-c7 = child A-F; Pre-Tx A-F: 70, 97.5, 99, 99, 69, 50
Procedure: as §1, §2
as §3, with “mg/day. For children with a body weight less than 15 kg, benzoate was given with 250 mg/day.” for “mg/day.”
Primary caregiver filled out the Chinese version of the parenting stress index (Wen, 2003) which was a validated Chinese version of the original questionnaire developed by Abdin (Abidin, 1986) that measured aspects of parental functioning. […]

children with ASD [3] = assay: Clinical Global Impression-Improvement Scale (CGI-I) and clinicians' conclusion, 12-week open label trial; type: in vivo, human; conditions: for Clinicians' conclusion on improvement of the individual child (text): after 12 weeks, b64-b69 = child A-F in order
Procedure: as §1, §2
(§4) Six children, including five boys and 1 child with ages between 3-year-7-month to 9-year-10-month old, were assigned to receive a 12-week treatment of sodium benzoate. For children with a body weight equal or more than 15 kg, benzoate was given with 500 mg/day. For children with a body weight less than 15 kg, benzoate was given with 250 mg/day. Sodium benzoate was provided by Excelsior Pharmatech Labs (Taiwan).
(§5) All the children entering this study also started to receive communication training using the Core Vocabulary Communication System—Chinese version (the Unlimiter Assistive Technology Engineering Lab, Taiwan). Parents were required to teach their children 40 minutes per day at home using this System. During the 12-week period, the parents were required to bring children back the hospital every 2 weeks. At the baseline and the final (12 weeks) visit, the following assessments were arranged.
The CGI-I is an observer-rated scale that measures the global improvement of illness as compared to condition at admission to the trial (Guy, 1976).

children with ASD [4] = assay: Safety observations (activity level, sleep) in the 12-week open label trial; type: in vivo, human; conditions: for Sleep: child C first 3 days of benzoate usage, child D, child E; for Activity level (untoward activating effect): child D at final assessment, child E in the first two weeks, returned to baseline one month later
Source text: The present disclosure examined the efficacy and safety of sodium benzoate, a D-amino acid oxidase inhibitor, for the treatment of an autism spectrum disorder.
as §2, §4, §5

[5] = system: early-phase Alzheimer disease; conditions: prior trial; cited from earlier work
schizophrenia = conditions: prior trial; cited from earlier work

Question: Which “ABAS-S: Parental reported Social Score, Post-Tx” value (children with ASD [1]; Pre-Tx A-F: 71, 51, 57, 61, 46, 45) does the source give for `O=C([O-])c1ccccc1.[Na+]` [sodium benzoate] here?
Answer: 77 and 51 and 50 and 44 and 46 and 45

Question: What about the “ABAS-GCS: Parental reported General Adaptive Composite Score, Post-Tx” value (children with ASD [1]; Pre-Tx A-F: 77, 60, 47, 53, 50, 58) of the same molecule?
Answer: 77 and 61 and 46 and 49 and 53 and 57

Question: And the “PSI % (parenting stress index, derived raw-to-percentile score), Post-Tx” value (children with ASD [2])?
Answer: 62% and 93* % and 99* % and 99.9* % and 75% and 72%

Question: And the “Clinicians' conclusion on improvement of the individual child (text)” value (children with ASD [3])?
Answer: much improved; also recorded: no improvement; also recorded: minimally improved

Question: What about the “Clinicians' conclusion on improvement of the individual child (text)” value (children with ASD [3]; listed as benzoate) of the same molecule?
Answer: minimal improvement

Question: And the “Overall effect in teaching of communication skill as observed by the parents and clinicians” value (children with ASD [3]; six children, 12 weeks)?
Answer: beneficial effects

Question: What about the “Participants judged to be much improved” value (children with ASD [3]; six children, 12 weeks, child A, B, E) of the same molecule?
Answer: Half of the participants

Question: And the “CGI: Clinical Global Impression-Improvement” value (children with ASD [3]; sodium benzoate 250 to 500 mg/day, 12 weeks, c2-c7 = child A-F)?
Answer: much ((2) much improved); also recorded: mini-; also recorded: nil ((4) no change)

Question: What about the Sleep (children with ASD [4]) of the same molecule?
Answer: sleep pattern was unaltered

Question: And the Sleep (children with ASD [4]; listed as benzoate)?
Answer: not able to fall asleep at their usual sleep time

Question: What about the “Activity level (untoward activating effect)” value (children with ASD [4]) of the same molecule?
Answer: activity level became even higher; also recorded: activity level increased

Question: What about the “Activity level (untoward activating effect)” value (children with ASD [4]; listed as benzoic acid salt) of the same molecule?
Answer: untoward activating effect

Question: What about the “Clinical symptoms, neurocognitive ability and quality of life” value [5] of the same molecule?
Answer: Significant improvements

Question: What about the “Clinical symptoms, neurocognitive ability and quality of life” value (schizophrenia) of the same molecule?
Answer: Significant improvements
